Results published in the NIST ThermoML archive (doi:10.1016/j.jct.2012.09.004).

Experiments:
[1] = wn = mass fraction of the nth substance listed; conditions: Pendant drop shape
[2] = refractive index (Na D-line) (dimensionless); wn = mass fraction of the nth substance listed; conditions: 101 kPa, Liquid, Standard Abbe refractometry
[3] = Pendant drop shape
[4] = refractive index (Na D-line) (dimensionless); conditions: 101.33 kPa, Liquid, Standard Abbe refractometry

CCCCCCCCCCCCCC[P+](CCCCCC)(CCCCCC)CCCCCC.[Br-] [tetradecyltrihexylphosphonium bromide] + O
Conditions | refractive index | surface tension liquid-gas [mN/m]
[1], 298.1 K, w2 = 0.0665 | – | 31.4
[1], 307.9 K, w2 = 0.0665 | – | 30.35
[1], 318.1 K, w2 = 0.0665 | – | 29.64
[1], 328.1 K, w2 = 0.0665 | – | 28.95
[1], 338.9 K, w2 = 0.0665 | – | 28.2
[1], 344.2 K, w2 = 0.0665 | – | 27.91
[2], 298.15 K, w2 = 0.065 | 1.4782 | –
[2], 303.15 K, w2 = 0.065 | 1.47646 | –
[2], 308.15 K, w2 = 0.065 | 1.47465 | –
[2], 313.15 K, w2 = 0.065 | 1.47289 | –
[2], 318.15 K, w2 = 0.065 | 1.47115 | –
[2], 323.15 K, w2 = 0.065 | 1.46939 | –
[2], 328.15 K, w2 = 0.065 | 1.46765 | –
[2], 333.15 K, w2 = 0.065 | 1.46587 | –
[2], 338.15 K, w2 = 0.065 | 1.46414 | –
[2], 343.15 K, w2 = 0.065 | 1.46244 | –
[2], 348.15 K, w2 = 0.065 | 1.46078 | –
[2], 353.15 K, w2 = 0.065 | 1.45926 | –

CCCCCCCCCCCCCC[P+](CCCCCC)(CCCCCC)CCCCCC.[Cl-] [trihexyl(tetradecyl)phosphonium chloride]
Conditions | refractive index | surface tension liquid-gas [mN/m]
[3], 298.6 K | – | 30.6
[3], 308 K | – | 30.1
[3], 318 K | – | 29.3
[3], 328.1 K | – | 28.6
[3], 338.3 K | – | 27.8
[3], 343.3 K | – | 27.5
[4], 283.15 K | 1.48794 | –
[4], 288.15 K | 1.48635 | –
[4], 293.15 K | 1.48471 | –
[4], 298.15 K | 1.48309 | –
[4], 303.15 K | 1.48142 | –
[4], 308.15 K | 1.47973 | –
[4], 313.15 K | 1.47796 | –
[4], 318.15 K | 1.4757 | –
[4], 323.15 K | 1.47387 | –
[4], 328.15 K | 1.4721 | –
[4], 333.15 K | 1.47029 | –
[4], 338.15 K | 1.46854 | –
[4], 343.15 K | 1.46677 | –
[4], 348.15 K | 1.46504 | –
[4], 353.15 K | 1.4634 | –

CCCCCCCCCCCCCC[P+](CCCCCC)(CCCCCC)CCCCCC.[Cl-] [trihexyl(tetradecyl)phosphonium chloride] + O
w2 = 0.1334
Conditions | refractive index | surface tension liquid-gas [mN/m]
[1], 298.6 K | – | 30.81
[1], 308 K | – | 30.01
[1], 318.3 K | – | 29.2
[1], 328.7 K | – | 28.45
[1], 342.7 K | – | 27.43
[2], 298.15 K | 1.46283 | –
[2], 303.15 K | 1.46133 | –
[2], 308.15 K | 1.45953 | –
[2], 313.15 K | 1.45768 | –
[2], 318.15 K | 1.45595 | –
[2], 323.15 K | 1.45425 | –
[2], 328.15 K | 1.45266 | –
[2], 333.15 K | 1.45124 | –
[2], 338.15 K | 1.44998 | –
[2], 343.15 K | 1.44892 | –
[2], 348.15 K | 1.44798 | –
[2], 353.15 K | 1.4471 | –

CCCCCCCCCC(=O)[O-].CCCCCCCCCCCCCC[P+](CCCCCC)(CCCCCC)CCCCCC [trihexyltetradecylphosphonium decanoate]
Conditions | refractive index | surface tension liquid-gas [mN/m]
[3], 298 K | – | 29
[3], 307.9 K | – | 28.5
[3], 318 K | – | 27.8
[3], 328.5 K | – | 27.2
[3], 338 K | – | 26.6
[3], 343 K | – | 26.2
[4], 283.15 K | 1.47754 | –
[4], 288.15 K | 1.47586 | –
[4], 293.15 K | 1.47413 | –
[4], 298.15 K | 1.47242 | –
[4], 303.15 K | 1.47069 | –
[4], 308.15 K | 1.46896 | –
[4], 313.15 K | 1.46722 | –
[4], 318.15 K | 1.46548 | –
[4], 323.15 K | 1.46341 | –
[4], 328.15 K | 1.46165 | –
[4], 333.15 K | 1.46002 | –
[4], 338.15 K | 1.45828 | –
[4], 343.15 K | 1.4566 | –
[4], 348.15 K | 1.45497 | –
[4], 353.15 K | 1.45327 | –

CCCCCCCCCC(=O)[O-].CCCCCCCCCCCCCC[P+](CCCCCC)(CCCCCC)CCCCCC [trihexyltetradecylphosphonium decanoate] + O
w2 = 0.1526
Conditions | refractive index | surface tension liquid-gas [mN/m]
[1], 298.4 K | – | 29.1
[1], 307.7 K | – | 28.5
[1], 318 K | – | 27.7
[1], 328.9 K | – | 26.8
[1], 339.2 K | – | 26
[1], 344.3 K | – | 25.6
[2], 298.15 K | 1.45342 | –
[2], 303.15 K | 1.45194 | –
[2], 308.15 K | 1.45041 | –
[2], 313.15 K | 1.44877 | –
[2], 318.15 K | 1.44699 | –
[2], 323.15 K | 1.44498 | –
[2], 328.15 K | 1.4431 | –
[2], 333.15 K | 1.44129 | –
[2], 338.15 K | 1.43948 | –
[2], 343.15 K | 1.43763 | –
[2], 348.15 K | 1.43579 | –
[2], 353.15 K | 1.43397 | –

CCCCCCCCCCCCCC[P+](CCCCCC)(CCCCCC)CCCCCC.CS(=O)(=O)[O-] [trihexyltetradecylphosphonium methanesulfonate]
Conditions | refractive index | surface tension liquid-gas [mN/m]
[3], 298.3 K | – | 31
[3], 308 K | – | 30.3
[3], 318.5 K | – | 29.6
[3], 328.8 K | – | 28.8
[3], 338.7 K | – | 28.2
[3], 343.5 K | – | 27.9
[4], 283.15 K | 1.47813 | –
[4], 288.15 K | 1.47668 | –
[4], 293.15 K | 1.47507 | –
[4], 298.15 K | 1.47346 | –
[4], 303.15 K | 1.47186 | –
[4], 308.15 K | 1.47025 | –
[4], 313.15 K | 1.46865 | –
[4], 318.15 K | 1.46702 | –
[4], 323.15 K | 1.4654 | –
[4], 328.15 K | 1.4638 | –
[4], 333.15 K | 1.46217 | –
[4], 338.15 K | 1.46053 | –
[4], 343.15 K | 1.45895 | –
[4], 348.15 K | 1.45727 | –
[4], 353.15 K | 1.45572 | –

CCCCCCCCCCCCCC[P+](CCCCCC)(CCCCCC)CCCCCC.CS(=O)(=O)[O-] [trihexyltetradecylphosphonium methanesulfonate] + O
w2 = 0.1181
Conditions | refractive index | surface tension liquid-gas [mN/m]
[1], 298.6 K | – | 31.15
[1], 307.8 K | – | 30.45
[1], 318 K | – | 29.81
[1], 323.8 K | – | 29.09
[1], 338.2 K | – | 28.29
[1], 342.7 K | – | 28.05
[2], 298.15 K | 1.45621 | –
[2], 303.15 K | 1.4546 | –
[2], 308.15 K | 1.45281 | –
[2], 313.15 K | 1.45111 | –
[2], 318.15 K | 1.44947 | –
[2], 323.15 K | 1.44795 | –
[2], 328.15 K | 1.44655 | –
[2], 333.15 K | 1.44532 | –
[2], 338.15 K | 1.44427 | –
[2], 343.15 K | 1.44334 | –
[2], 348.15 K | 1.44253 | –
[2], 353.15 K | 1.44181 | –
